The text below walks through data of ChEMBL document CHEMBL1156784, “The permeation of amphoteric drugs through artificial membranes--an in combo absorption model based on paracellular and transmembrane permeability” (J Med Chem, 2010).

The species entered for one series is Homo sapiens. Briefly: Clearance in human assessed as liver blood flow. Format: ADME, organism-based. As to conditions: in vivo.
A short description of series [1]: Oral bioavailability in human. As to conditions: in vivo.
Series [2] can be described thus: Permeability at pH 6.5 by PAMPA method. In general terms: The PAMPA barrier holds no transporters, so it reflects passive diffusion.
Series [3] is described as follows: Octanol-water partition coefficient, log P of the compound.

For orientation: bioavailability means the share of a dose that reaches the circulation, judged against a reference dose that is usually intravenous. For the compound `COCc1c(C(C)C)nc(C(C)C)c(/C=C/[C@@H](O)C[C@@H](O)CC(=O)O)c1-c1ccc(F)cc1` [CERIVASTATIN], in the series filed under Homo sapiens, the LBF worked out at 10%. The same compound registered a bioavailability in series [1] of 60%.

As a reminder, the Papp is a coefficient for how fast a substance crosses the barrier. Low readings indicate slow passage, high ones fast passage. Consider `N[C@@H](Cc1ccc(N(CCCl)CCCl)cc1)C(=O)O`, for which the LBF in the series listed under Homo sapiens was determined as 30%. This compound returned a Papp in series [2] of 84 ×10⁻⁶ cm/s.

Regarding `CC1COc2c(N3CCN(C)CC3)c(F)cc3c(=O)c(C(=O)O)cn1c23` (stereo unspecified) [OFLOXACIN], the bioavailability in series [1] stood at 90%.

With `CN1C(C(=O)Nc2ccccn2)=C(O)c2ccccc2S1(=O)=O` [PIROXICAM], in series [2], the Papp was found to be 20 ×10⁻⁶ cm/s.

In turn, `CCOC(=O)[C@H](CCc1ccccc1)N[C@H]1CCc2ccccc2N(CC(=O)O)C1=O` [BENAZEPRIL] had a bioavailability in series [1] of 37%. In series [2], the Papp is 17 ×10⁻⁶ cm/s.

With `CC1(C)S[C@@H]2[C@H](/N=C/N3CCCCCC3)C(=O)N2[C@H]1C(=O)O` [AMDINOCILLIN], the bioavailability in series [1] worked out at 10%. Moreover, the Papp in series [2] is 0.9 ×10⁻⁶ cm/s.

The compound `CC(C)(O/N=C(\C(=O)N[C@@H]1C(=O)N2C(C(=O)[O-])=C(C[n+]3ccccc3)CS[C@H]12)c1csc(N)n1)C(=O)O` [CEFTAZIDIME] had a bioavailability in series [1] of 0%. Further, the Papp in series [2] came to 0.2 ×10⁻⁶ cm/s.

Consider `C[C@@H]1CN(c2c(F)c(N)c3c(=O)c(C(=O)O)cn(C4CC4)c3c2F)C[C@H](C)N1` [SPARFLOXACIN], for which the bioavailability in series [1] amounted to 92%. For the same compound, the Papp in series [2] was determined as 42 ×10⁻⁶ cm/s.

In turn, `CN(C)c1ccc(O)c2c1C[C@H]1C[C@H]3[C@H](N(C)C)C(O)=C(C(N)=O)C(=O)[C@@]3(O)C(O)=C1C2=O` [MINOCYCLINE] registered a bioavailability in series [1] of 100%. Further, the Papp in series [2] worked out at 50 ×10⁻⁶ cm/s.

`CCn1cc(C(=O)O)c(=O)c2cc(F)c(N3CCNC(C)C3)c(F)c21` (stereo unspecified) [LOMEFLOXACIN] gave a bioavailability in series [1] of 97%. Besides, the permeability in series [2] is recorded as 15 ×10⁻⁶ cm/s.

`C[C@H]1c2cccc(O)c2C(=O)C2=C(O)[C@]3(O)C(=O)C(C(N)=O)=C(O)[C@@H](N(C)C)[C@@H]3[C@@H](O)[C@@H]21.O` [DOXYCYCLINE] had a Papp in series [2] of 20 ×10⁻⁶ cm/s.

Take `COc1cccc2c1C(=O)c1c(O)c3c(c(O)c1C2=O)C[C@@](O)(C(C)=O)C[C@@H]3O[C@H]1C[C@H](N)[C@H](O)[C@H](C)O1` [DAUNORUBICIN]: the bioavailability in series [1] was 0%. Besides, in series [2], the apparent permeability coefficient (Papp) amounted to 0.3 ×10⁻⁶ cm/s.

`CCn1cc(C(=O)O)c(=O)c2cc(F)c(N3CCNCC3)nc21` [ENOXACIN] displayed a bioavailability in series [1] of 89%. This compound displayed a Papp in series [2] of 7.7 ×10⁻⁶ cm/s.

`Cc1cnc(NC(=O)C2=C(O)c3ccccc3S(=O)(=O)N2C)s1` [MELOXICAM] returned a bioavailability in series [1] of 89%.

In series [2], `Nc1nc2c(ncn2COCCO)c(=O)[nH]1` [ACYCLOVIR] showed a Papp of 0.8 ×10⁻⁶ cm/s.

In series [1], `Cc1cccc(Nc2ccncc2S(=O)(=O)NC(=O)NC(C)C)c1` [TORSEMIDE] registered a bioavailability of 80%. In addition, the Papp in series [2] is 22 ×10⁻⁶ cm/s.

As for `CN(C)[C@@H]1C(O)=C(C(N)=O)C(=O)[C@@]2(O)C(O)=C3C(=O)c4c(O)cccc4[C@@](C)(O)[C@H]3C[C@@H]12` [TETRACYCLINE], in series [1], the bioavailability was 78%. In series [2], this compound registered a Papp of 3.8 ×10⁻⁶ cm/s.

As for `CN(C)[C@@H]1C(O)=C(C(N)=O)C(=O)[C@@]2(O)C(O)=C3C(=O)c4c(O)ccc(Cl)c4[C@@H](O)[C@H]3C[C@@H]12` [DEMECLOCYCLINE], the bioavailability in series [1] came out at 66%. Besides, in series [2], the Papp was 3.8 ×10⁻⁶ cm/s.

`N[C@@H]1[C@H]2CN(c3nc4c(cc3F)c(=O)c(C(=O)O)cn4-c3ccc(F)cc3F)C[C@@H]12` [TROVAFLOXACIN] displayed a bioavailability in series [1] of 88%. The Papp in series [2] turned out to be 57 ×10⁻⁶ cm/s.

In the case of `COc1c(N2CCNC(C)C2)c(F)cc2c(=O)c(C(=O)O)cn(C3CC3)c12` (stereo unspecified) [GATIFLOXACIN], the Papp in series [2] stood at 20 ×10⁻⁶ cm/s.

`CCn1cc(C(=O)O)c(=O)c2cc(F)c(N3CCN(C)CC3)cc21` [PEFLOXACIN] registered a bioavailability in series [1] of 95%.

For the compound `NC(N)=Nc1nc(CSCCC(N)=NS(N)(=O)=O)cs1` [FAMOTIDINE], the LBF in the series listed under Homo sapiens is listed as 16%. This compound also returned a bioavailability in series [1] of 42%. The compound further displayed a Papp in series [2] of 0.6 ×10⁻⁶ cm/s.

`CN(C)[C@@H]1C(O)=C(C(N)=O)C(=O)[C@@]2(O)C(O)=C3C(=O)c4c(O)ccc(Cl)c4[C@@](C)(O)[C@H]3C[C@@H]12` [CHLORTETRACYCLINE]: the bioavailability in series [1] worked out at 60%. In addition, the Papp in series [2] was 3.7 ×10⁻⁶ cm/s.

`Nc1nc(O)c2ncn(COC(CO)CO)c2n1` [GANCICLOVIR] came in with a bioavailability in series [1] of 7.3%.

A word on the logP: it is the decadic logarithm of the partition coefficient of the neutral form, usually between octanol and water. A high value points to higher lipophilicity. `Nc1ccc(S(=O)(=O)Nc2ncccn2)cc1` [SULFADIAZINE] came in with a bioavailability in series [1] of 100%. In series [3], this compound registered a logP of -0.08. The compound further yielded a Papp in series [2] of 1.2 ×10⁻⁶ cm/s.

`CC(C)(C)NCC(O)c1cc(O)cc(O)c1` (stereo unspecified) [TERBUTALINE]: the bioavailability in series [1] came out at 14%. This compound showed a Papp in series [2] of 1.4 ×10⁻⁶ cm/s.

`C[N+](C)(C)C[C@H](O)CC(=O)[O-]` [LEVOCARNITINE] had a bioavailability in series [1] of 10%. The Papp in series [2] was 1.3 ×10⁻⁶ cm/s.

In turn, `NCCCC[C@H](N[C@@H](CCc1ccccc1)C(=O)O)C(=O)N1CCC[C@H]1C(=O)O` [LISINOPRIL ANHYDROUS] showed a bioavailability in series [1] of 25%.

`Nc1ccc(O)c(C(=O)O)c1` [MESALAMINE]: the bioavailability in series [1] came out at 28%. For the same compound, in series [2], the Papp was found to be 0.9 ×10⁻⁶ cm/s.
